Measurements: ChEMBL document CHEMBL4340535, “Antitumor effect of chiral organotelluranes elicited in a murine melanoma model” (Bioorg Med Chem, 2019)
The source made the active and inactive calls. No cut-off for these calls is given here.

Legend:
A2058 = experiment: Cytotoxicity against human A2058 cells assessed as reduction in cell viability incubated for 16 hrs by MTT assay; assay type: functional, cell-based; settings: for IC50: A2058, 16 h
[1] = molecular target: Cathepsin B (Homo sapiens) (UniProt P07858); experiment: Inhibition of human recombinant cathepsin B assessed as second-order inhibition rate constant using Z-RR-MCA as substrate incubated for 10 mins by spectrofluorimetric method
B16F10Nex2 [2] = experiment: Inhibition of cell adhesion of mouse B16F10Nex2 cells assessed as reduction in cell adhesion to fibronectin at 2 uM incubated for 3 hrs by toluidine blue staining based assay; assay type: functional
MeWo = experiment: Cytotoxicity against human MeWo cells assessed as reduction in cell viability incubated for 16 hrs by MTT assay; assay type: functional, cell-based
B16F10Nex2 [3] = experiment: Antitumor activity against mouse B16F10Nex2 cells transplanted in C57BL/6 mouse assessed as reduction in lungs superficial nodules at 20 uM, ip administered every other day for 12 days and measured 21 days post transplantation relative to control; assay type: functional
B16F10Nex2 [4] = experiment: Induction of morphological changes in mouse B16F10Nex2 cells at 10 uM incubated for 24 hrs by tubulin-Cy2 and TOPRO-3 staining based confocal microscopic method; assay type: functional, cell-based
HT-144 [5] = experiment: Induction of morphological changes in human HT144 cells at 10 uM incubated for 24 hrs by tubulin-Cy2 and TOPRO-3 staining based confocal microscopic method; assay type: functional, cell-based
B16F10Nex2 [6] = experiment: Antitumor activity against mouse B16F10Nex2 cells transplanted in C57BL/6 mouse assessed as reduction in lung metastases at 20 uM, ip administered for 5 non-consecutive days and measured 21 days post transplantation relative to control; assay type: functional; set-up: scale not given: the % may be the effect or the level left
HT-144 [7] = experiment: Induction of morphological changes in human HT144 cells assessed as reduction in stress fibers formation by measuring cell rounding at 30 uM incubated for 24 hrs by phalloidin-TRITC, tubulin-Cy2 and TOPRO-3 staining based confocal microscopic method; assay type: functional
B16F10Nex2 [8] = experiment: Induction of morphological changes in mouse B16F10Nex2 cells assessed as depolymerisation of F-actin at 10 uM incubated for 24 hrs by tubulin-Cy2 and TOPRO-3 staining based confocal microscopic method; assay type: functional, cell-based
B16F10Nex2 [9] = experiment: Induction of morphological changes in mouse B16F10Nex2 cells assessed as retraction of cell protrusions at 10 uM incubated for 24 hrs by tubulin-Cy2 and TOPRO-3 staining based confocal microscopic method; assay type: functional
HeLa = experiment: Cytotoxicity against human HeLa cells assessed as reduction in cell viability incubated for 16 hrs by MTT assay; assay type: functional, cell-based
NIH3T3 = experiment: Cytotoxicity against mouse 3T3 cells assessed as reduction in cell viability incubated for 16 hrs by MTT assay; assay type: cell-based; settings: for IC50: Mus musculus, NIH3T3, 16 h; for Activity: mouse, nih3t3, 16 h
B16F10Nex2 [10] = experiment: Antimigratory activity against mouse B16F10Nex2 cells assessed as reduction in cell migration towards wound area at 20 uM measured every hour for 24 hrs by scratch wound-healing assay relative to control; assay type: functional; settings: B16F10Nex2, 24 h
B16F10Nex2 [11] = experiment: Inhibition of cell adhesion of mouse B16F10Nex2 cells assessed as reduction in cell adhesion to laminin at 2 uM incubated for 3 hrs by toluidine blue staining based assay; assay type: functional
HT-144 [12] = experiment: (§1) Induction of morphological changes in human HT144 cells assessed as cell rounding with remaining cortical actin in close association with the microtubule network at 30 uM incubated for 24 hrs by phalloidin-TRITC, tubulin-Cy2 and TOPRO-3 staining based confocal microscopic method; assay type: functional
B16F10Nex2 [13] = experiment: Induction of morphological changes in mouse B16F10Nex2 cells assessed as membrane blebbing at 10 uM incubated for 24 hrs by tubulin-Cy2 and TOPRO-3 staining based confocal microscopic method; assay type: functional, cell-based
HT-144 [14] = experiment: Induction of morphological changes in human HT144 cells assessed as depolymerisation of F-actin at 10 uM incubated for 24 hrs by tubulin-Cy2 and TOPRO-3 staining based confocal microscopic method; assay type: functional, cell-based
B16F10Nex2 [15] = experiment: Induction of morphological changes in mouse B16F10Nex2 cells assessed as cell rounding at 10 uM incubated for 24 hrs by tubulin-Cy2 and TOPRO-3 staining based confocal microscopic method; assay type: functional
B16F10Nex2 [16] = experiment: Inhibition of cell adhesion of mouse B16F10Nex2 cells assessed as reduction in cell adhesion to type 1 collagen at 2 uM incubated for 3 hrs by toluidine blue staining based assay; assay type: functional
SK-MEL-28 = experiment: Cytotoxicity against human SK-MEL-28 cells assessed as reduction in cell viability incubated for 16 hrs by MTT assay; assay type: functional, cell-based; settings: for IC50: SK-MEL-28, 16 h
HUVEC [17] = experiment: Cytotoxicity against human HUVEC cells assessed as reduction in cell viability incubated for 16 hrs by MTT assay; assay type: cell-based; settings: for IC50: Homo sapiens, HUVEC; for Activity: human, huvec
SK-MEL-25 = experiment: Cytotoxicity against human SK-MEL-25 cells assessed as reduction in cell viability incubated for 16 hrs by MTT assay; assay type: functional, cell-based; settings: for IC50: SK-MEL-25, 16 h
B16F10Nex2 [18] = experiment: Cytotoxicity against mouse B16F10Nex2 cells assessed as reduction in cell viability incubated for 16 hrs by MTT assay; assay type: functional, cell-based; settings: for IC50: B16F10Nex2, 16 h
HT-144 [19] = experiment: as §1, with “reduction in stress fibers formation by measuring” for “cell rounding with”; assay type: functional, cell-based
HT-144 [20] = experiment: Induction of morphological changes in human HT144 cells assessed as cell rounding at 10 uM incubated for 24 hrs by tubulin-Cy2 and TOPRO-3 staining based confocal microscopic method; assay type: functional
HT-144 [21] = experiment: Induction of morphological changes in human HT144 cells assessed as membrane blebbing at 10 uM incubated for 24 hrs by tubulin-Cy2 and TOPRO-3 staining based confocal microscopic method; assay type: functional, cell-based
HT-144 [22] = experiment: Cytotoxicity against human HT144 cells assessed as reduction in cell viability incubated for 16 hrs by MTT assay; assay type: functional, cell-based
HUVEC [23] = experiment: Anti-angiogenic activity in human HUVEC cells assessed as inhibition in pro-angiogenic structures formation in presence of fetal calf serum at 0.062 uM incubated for 18 hrs by inverted light microscopy based matrigel assay; assay type: functional
HT-144 [24] = experiment: Induction of morphological changes in human HT144 cells assessed as retraction of cell protrusions at 10 uM incubated for 24 hrs by tubulin-Cy2 and TOPRO-3 staining based confocal microscopic method; assay type: functional
B16F10Nex2 [25] = experiment: Anti-invasive activity in mouse B16F10Nex2 cells assessed as reduction in invasive potential at 20 uM incubated for 24 hrs by Giemsa staining based matrigel assay relative to control; assay type: functional; settings: B16F10Nex2, 24 h
B16F10Nex2 [26] = experiment: Inhibition of cell adhesion of mouse B16F10Nex2 cells assessed as reduction in cell adhesion to type 4 collagen at 2 uM incubated for 3 hrs by toluidine blue staining based assay; assay type: functional
HUVEC [27] = experiment: Anti-invasive activity in human HUVEC cells assessed as reduction in invasive potential at 20 uM incubated for 24 hrs by Giemsa staining based matrigel assay; assay type: functional, cell-based
[28] = molecular target: Cathepsin S (Homo sapiens) (UniProt P25774); experiment: Inhibition of human recombinant cathepsin S assessed as second-order inhibition rate constant using Z-FR-MCA as substrate incubated for 10 mins by spectrofluorimetric method
Cathepsin S (Homo sapiens), sequence (P25774 115-331 limits assumed): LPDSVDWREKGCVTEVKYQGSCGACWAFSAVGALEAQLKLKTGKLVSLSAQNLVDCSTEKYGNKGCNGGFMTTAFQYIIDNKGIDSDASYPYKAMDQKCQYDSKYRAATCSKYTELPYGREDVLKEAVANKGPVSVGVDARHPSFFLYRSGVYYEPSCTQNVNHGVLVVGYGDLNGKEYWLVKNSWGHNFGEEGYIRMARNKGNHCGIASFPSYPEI

[29] = molecular target: Procathepsin L (Homo sapiens) (UniProt P07711); experiment: Inhibition of human recombinant cathepsin L expressed in Pichia pastoris assessed as second-order inhibition rate constant using Z-FR-MCA as substrate incubated for 10 mins by spectrofluorimetric method
Procathepsin L (Homo sapiens), sequence (P07711 114-333 limits assumed): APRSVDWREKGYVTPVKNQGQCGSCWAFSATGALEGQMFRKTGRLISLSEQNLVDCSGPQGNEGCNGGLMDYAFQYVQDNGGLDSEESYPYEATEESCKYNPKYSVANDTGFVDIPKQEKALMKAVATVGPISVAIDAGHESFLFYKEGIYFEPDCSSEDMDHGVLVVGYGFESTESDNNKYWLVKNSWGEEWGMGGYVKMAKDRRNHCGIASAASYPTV

HUVEC [30] = experiment: Anti-angiogenic activity in human HUVEC cells assessed as inhibition in pro-angiogenic structures formation in presence of fetal calf serum at 5 uM incubated for 18 hrs by inverted light microscopy based matrigel assay; assay type: functional
HUVEC [31] = experiment: Anti-angiogenic activity in human HUVEC cells assessed as inhibition in pro-angiogenic structures formation in presence of fetal calf serum at 0.5 uM incubated for 18 hrs by inverted light microscopy based matrigel assay; assay type: functional
HUVEC [32] = experiment: Antimigratory activity against human HUVEC cells assessed as reduction in cell migration towards wound area at 20 uM measured every hour for 24 hrs by scratch wound-healing assay relative to control; assay type: functional

## CCCC[Te](Cl)(Cl)c1ccccc1[C@H](C)OC
A2058
  Activity: Dose-dependent effect
  IC50: 1.5 mM
[1]
  K: 7400 M⁻¹ s⁻¹
B16F10Nex2 [2]
  inhibition: Active
MeWo
  Activity: Dose-dependent effect
  IC50: 3.2 mM
B16F10Nex2 [3]
  fold change (FC): 7
B16F10Nex2 [4]
  Activity: Active
HT-144 [5]
  Activity: Active
B16F10Nex2 [6]
  Activity: 85%
HT-144 [7]
  Activity: Active
B16F10Nex2 [8]
  Activity: Active
B16F10Nex2 [9]
  Activity: Active
HeLa
  Activity: Dose-dependent effect
  IC50: 0.8 mM
NIH3T3
  IC50: 3.1 mM
  Activity: Dose-dependent effect
B16F10Nex2 [10]
  inhibition at 20 µM: 80%
B16F10Nex2 [11]
  inhibition: Active
HT-144 [12]
  Activity: Active
B16F10Nex2 [13]
  Activity: Active
HT-144 [14]
  Activity: Active
B16F10Nex2 [15]
  Activity: Active
B16F10Nex2 [16]
  inhibition: Active
SK-MEL-28
  Activity: Dose-dependent effect
  IC50: 3.1 mM
HUVEC [17]
  IC50: 2.8 mM
  Activity: Dose-dependent effect
SK-MEL-25
  Activity: Dose-dependent effect
  IC50: 2.5 mM
B16F10Nex2 [18]
  Activity: Dose-dependent effect
  IC50: 0.9 mM
HT-144 [19]
  Activity: Active
HT-144 [20]
  Activity: Active
HT-144 [21]
  Activity: Active
HT-144 [22]
  Activity: Dose-dependent effect
HUVEC [23]
  inhibition at 0.062 µM: 55%
HT-144 [24]
  Activity: Active
B16F10Nex2 [25]
  inhibition at 20 µM: 80%
B16F10Nex2 [26]
  inhibition: Active
HUVEC [27]
  Activity: Active
[28]
  K: 600000 M⁻¹ s⁻¹
[29]
  K: 8700 M⁻¹ s⁻¹

## CC(C)C[C@H](NC(=O)[C@H]1O[C@@H]1C(=O)O)C(=O)NCCCCN=C(N)N [E-64]
HUVEC [30]
  inhibition at 5 µM: 80%

## CCCC[Te](Cl)(Cl)c1ccccc1[C@@H](C)OC
HUVEC [31]
  inhibition at 0.5 µM: 45%
A2058
  Activity: Dose-dependent effect
  IC50: 5.5 mM
[1]
  K: 3700 M⁻¹ s⁻¹
B16F10Nex2 [2]
  inhibition: Active
MeWo
  Activity: Dose-dependent effect
  IC50: 9.5 mM
B16F10Nex2 [3]
  fold change (FC): 2
B16F10Nex2 [4]
  Activity: Active
HT-144 [5]
  Activity: Active
B16F10Nex2 [6]
  Activity: 58%
HT-144 [7]
  Activity: Active
B16F10Nex2 [8]
  Activity: Active
B16F10Nex2 [9]
  Activity: Active
HeLa
  Activity: Dose-dependent effect
  IC50: 2.3 mM
NIH3T3
  IC50: 11.5 mM
  Activity: Dose-dependent effect
B16F10Nex2 [10]
  inhibition at 20 µM: 80%
B16F10Nex2 [11]
  inhibition: Active
HT-144 [12]
  Activity: Active
B16F10Nex2 [13]
  Activity: Active
HT-144 [14]
  Activity: Active
B16F10Nex2 [15]
  Activity: Active
B16F10Nex2 [16]
  inhibition: Active
SK-MEL-28
  Activity: Dose-dependent effect
  IC50: 6.2 mM
HUVEC [17]
  IC50: 20.3 mM
  Activity: Dose-dependent effect
SK-MEL-25
  Activity: Dose-dependent effect
  IC50: 18 mM
B16F10Nex2 [18]
  Activity: Dose-dependent effect
  IC50: 2.3 mM
HT-144 [19]
  Activity: Active
HT-144 [20]
  Activity: Active
HT-144 [21]
  Activity: Active
HT-144 [22]
  Activity: Dose-dependent effect
HT-144 [24]
  Activity: Active
B16F10Nex2 [25]
  inhibition at 20 µM: 80%
B16F10Nex2 [26]
  inhibition: Active
HUVEC [27]
  Activity: Active
[28]
  K: 39000 M⁻¹ s⁻¹
HUVEC [32]
  inhibition at 20 µM: 33%
[29]
  K: 5500 M⁻¹ s⁻¹
